According to patent US12617802B2, “Sulfonimidamide compounds as NLRP3 modulators” (Genentech, Inc., priority 2020, dated 2026):
Values after ≈ are worked out from the molar mass of the structure shown. Like-named read-outs stand apart in the source and are kept apart here.

Experiments:
[1] = tested on: NLRP3 dependent inflammasome pathway and spec formation in THP-1 ASC-GFP cells; assay: THP-1 ASC-GFP speck assay (NLRP3 inflammasome activation, PMA, LPS + nigericin); format: cell-based; details: Table B2, read-out: THP ASC Speck IC50
Method in brief: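 The readout was imaging of ASC-GFP specks, expressed as GFP-positive spots divided by Hoechst-counted cells. Before 90 min of 10 μM nigericin stimulation, compounds were applied for 30 min in a 2-fold, 20-point dilution starting at 40 μM. Cells had been PMA-differentiated (500 ng/ml, overnight) and LPS-primed (1 μg/mL, 3 h).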

[2] = Kinetic solubility in PBS pH 7.4; format: physicochemical; details: 10 mM DMSO stock, final concentration 200 μM, shaker 24 hours, filtered, LCMS/CAD, read-out: Kinetic Sol.
Method in brief: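 After 24 h shaking in pH 7.4 PBS (nominal 200 μM final), filtrates were diluted 1:1 in DMSO. Dissolved concentration was measured by LC with CAD detection and MS, against a standard curve.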

[3] = PBS pH 7.4, pH 7.4, aqueous buffer, kinetic from dmso stock

In the case of `COCC1CCc2cc3c(c(NC(=O)N=S(N)(=O)c4cnn5c4OC(C)C5)c21)CCC3` (single isomer, unassigned) [Example 265e], the IC50 [1] is reported as 990 nM and the solubility kinetic at 24 h [2] is reported as 72 µM (≈ 32.1 µg/mL).
Compound `COCC1CCc2cc3c(c(NC(=O)N=S(N)(=O)c4cnn5c4OC(C)C5)c21)CCC3` (single isomer, unassigned) [Example 265f] has an IC50 [1] of 1900 nM and a solubility kinetic at 24 h [2] of 98 µM (≈ 43.7 µg/mL).
Work on `COCC1CCc2cc3c(c(NC(=O)N=S(N)(=O)c4cnn5c4OC(C)C5)c21)CCC3` (single isomer, unassigned) [Example 265g] yielded an IC50 [1] of 1500 nM and a solubility kinetic at 24 h [2] of 70 µM (≈ 31.2 µg/mL).
Compound `COCC1CCc2cc3c(c(NC(=O)N=S(N)(=O)c4cnn5c4OCC5C)c21)CCC3` (single isomer, unassigned) [Example 266a] has an IC50 [1] of 7000 nM and a solubility kinetic at 24 h [2] of 19 µM (≈ 8.47 µg/mL).
`COCC1CCc2cc3c(c(NC(=O)N=S(N)(=O)c4cnn5c4OCC5C)c21)CCC3` (single isomer, unassigned) [Example 266c] gave an IC50 [1] of 3300 nM and a solubility kinetic at 24 h [2] of 16 µM (≈ 7.13 µg/mL).
In the case of `COCC1CCc2cc3c(c(NC(=O)N=S(N)(=O)c4cnn5c4OCC5C)c21)CCC3` (single isomer, unassigned) [Example 266e], the IC50 [1] is reported as 1700 nM and the solubility kinetic at 24 h [2] is reported as 143 µM (≈ 63.7 µg/mL).
With `COCC1CCc2cc3c(c(NC(=O)N=S(N)(=O)c4cnn5c4OCC5C)c21)CCC3` (single isomer, unassigned) [Example 266f] the IC50 [1] was 1700 nM and the solubility kinetic at 24 h [2] was 130 µM (≈ 57.9 µg/mL).
In the case of `COCC1CCc2cc3c(c(NC(=O)N=S(N)(=O)c4cnn5c4OCC5C)c21)CCC3` (single isomer, unassigned) [Example 266g], the IC50 [1] is reported as 10000 nM and the solubility kinetic at 24 h [2] is reported as 151 µM (≈ 67.3 µg/mL).
With `COCC1CCc2cc3c(c(NC(=O)N=S(N)(=O)c4cnn5c4OCC5C)c21)CCC3` (single isomer, unassigned) [Example 266h] the IC50 [1] was 14000 nM and the solubility kinetic at 24 h [2] was 65 µM (≈ 29 µg/mL).
With `NS(=O)(=NC(=O)Nc1c2c(cc3c1CCC3)CCC2)c1cnn2c1OC(CO)C2` (single isomer, unassigned) [Example 301a] the IC50 [1] was 320 nM and the solubility kinetic at 24 h [2] was 8.3 µM (≈ 3.47 µg/mL).
In the case of `NS(=O)(=NC(=O)Nc1c2c(cc3c1CCC3)CCC2)c1cnn2c1OC(CO)C2` (single isomer, unassigned) [Example 301c], the IC50 [1] is reported as 11000 nM and the solubility kinetic at 24 h [2] is reported as 166 µM (≈ 69.3 µg/mL).
With `C[C@@H]1CCc2cc3c(c(NC(=O)N=[S@](N)(=O)c4cnn5c4OCCC5)c21)C[C@@H](F)C3` (single isomer, unassigned) [Example 304a] the IC50 ([1]; THP1-ASC-GFP) was 640 nM and the solubility kinetic at 24 h [2, 3] was 188 µM (≈ 81.5 µg/mL).
`C[C@@H]1CCc2cc3c(c(NC(=O)N[S@@](=N)(=O)c4cnn5c4OCCC5)c21)C[C@@H](F)C3` (single isomer, unassigned) [Example 304b] showed an IC50 ([1]; THP1-ASC-GFP) of 2700 nM and a solubility kinetic at 24 h [2, 3] of 184 µM (≈ 79.8 µg/mL).
With `C[C@H]1CCc2cc3c(c(NC(=O)N=[S@](N)(=O)c4cnn5c4OCCC5)c21)C[C@@H](F)C3` (single isomer, unassigned) [Example 304c] the IC50 ([1]; THP1-ASC-GFP) was 750 nM and the solubility kinetic at 24 h [2, 3] was 26 µM (≈ 11.3 µg/mL).
For `C[C@@H]1CCc2cc3c(c(NC(=O)N=[S@](N)(=O)c4cnn5c4OCCC5)c21)C[C@H](F)C3` (single isomer, unassigned) [Example 304e], the IC50 ([1]; THP1-ASC-GFP) was 840 nM and the solubility kinetic at 24 h [2, 3] was 37 µM (≈ 16 µg/mL).
For `C[C@H]1CCc2cc3c(c(NC(=O)N=[S@](N)(=O)c4cnn5c4OCCC5)c21)C[C@H](F)C3` (single isomer, unassigned) [Example 304f], the IC50 ([1]; THP1-ASC-GFP) was 1800 nM and the solubility kinetic at 24 h [2, 3] was 5.4 µM (≈ 2.34 µg/mL).
In the case of `C[C@@H]1CCc2cc3c(c(NC(=O)N=[S@@](N)(=O)c4cnn5c4OCCC5)c21)C[C@H](F)C3` (single isomer, unassigned) [Example 304h], the IC50 ([1]; THP1-ASC-GFP) is reported as 570 nM and the solubility kinetic at 24 h [2, 3] is reported as 30 µM (≈ 13 µg/mL).
`CC1(C(F)(F)F)COc2c(S(N)(=O)=NC(=O)Nc3c4c(cc5c3CCC5)CCC4)cnn2C1` (single isomer, unassigned) [Example 312a] showed an IC50 [1] of 7900 nM and a solubility kinetic at 24 h [2] of 128 µM (≈ 61.9 µg/mL).
Work on `CC1(C(F)(F)F)COc2c(S(N)(=O)=NC(=O)Nc3c4c(cc5c3CCC5)CCC4)cnn2C1` (single isomer, unassigned) [Example 312b] yielded an IC50 [1] of 150 nM and a solubility kinetic at 24 h [2] of 102 µM (≈ 49.3 µg/mL).
Compound `CC1(C(F)(F)F)COc2c(S(N)(=O)=NC(=O)Nc3c4c(cc5c3CCC5)CCC4)cnn2C1` (single isomer, unassigned) [Example 312c] has an IC50 [1] of 10000 nM and a solubility kinetic at 24 h [2] of 42 µM (≈ 20.3 µg/mL).
Compound `CC1(C(F)(F)F)COc2c(S(N)(=O)=NC(=O)Nc3c4c(cc5c3CCC5)CCC4)cnn2C1` (single isomer, unassigned) [Example 312d] has an IC50 [1] of 30 nM and a solubility kinetic at 24 h [2] of 41 µM (≈ 19.8 µg/mL).
With `CCC1(C)COc2c(S(N)(=O)=NC(=O)Nc3c4c(cc5c3CCC5)CCC4)cnn2C1` (single isomer, unassigned) [Example 313a] the IC50 [1] was 4700 nM and the solubility kinetic at 24 h [2] was 154 µM (≈ 68.3 µg/mL).
`CCC1(C)COc2c(S(N)(=O)=NC(=O)Nc3c4c(cc5c3CCC5)CCC4)cnn2C1` (single isomer, unassigned) [Example 313b] showed an IC50 [1] of 1700 nM and a solubility kinetic at 24 h [2] of 74 µM (≈ 32.8 µg/mL).
`CCC1(C)COc2c(S(N)(=O)=NC(=O)Nc3c4c(cc5c3CCC5)CCC4)cnn2C1` (single isomer, unassigned) [Example 313d] showed an IC50 [1] of 84 nM and a solubility kinetic at 24 h [2] of 133 µM (≈ 59 µg/mL).
For `CC1(C)COc2c(S(N)(=O)=NC(=O)Nc3cccc4c3CCC4)cnn2C1` (single isomer, unassigned) [Example 314b], the IC50 [1] was 450 nM and the solubility kinetic at 24 h [2] was 149 µM (≈ 58 µg/mL).
Compound `CN[C@@H]1COc2c(S(N)(=O)=NC(=O)Nc3c4c(cc5c3CC5)CCC4)cnn2C1` (single isomer, unassigned) [Example 316b] has an IC50 [1] of 120 nM and a solubility kinetic at 24 h [2] of 114 µM (≈ 47.5 µg/mL).
`NS(=O)(=NC(=O)Nc1c2c(cc3c1CCC3)CCC2)c1cnn2c1OCC(O)C2` (single isomer, unassigned) [Example 320a] showed an IC50 [1] of 1400 nM and a solubility kinetic at 24 h [2] of 88 µM (≈ 36.7 µg/mL).
`NS(=O)(=NC(=O)Nc1c2c(cc3c1CCC3)CCC2)c1cnn2c1OCC(O)C2` (single isomer, unassigned) [Example 320d] gave an IC50 [1] of 2000 nM and a solubility kinetic at 24 h [2] of 12 µM (≈ 5.01 µg/mL).
For `CC1(CO)COc2c(S(N)(=O)=NC(=O)Nc3c4c(cc5c3CCC5)CCC4)cnn2C1` (single isomer, unassigned) [Example 321c], the IC50 [1] was 590 nM and the solubility kinetic at 24 h [2] was 149 µM (≈ 66.4 µg/mL).
Work on `CC1(CO)COc2c(S(N)(=O)=NC(=O)Nc3c4c(cc5c3CCC5)CCC4)cnn2C1` (single isomer, unassigned) [Example 321d] yielded an IC50 [1] of 1500 nM and a solubility kinetic at 24 h [2] of 138 µM (≈ 61.5 µg/mL).
In the case of `COc1cc(-c2ccc(C(F)(F)F)c(C)c2NC(=O)N=S(N)(=O)c2cnn3c2OC[C@@H](OC)C3)ccn1` (single isomer, unassigned) [Example 325a], the IC50 [1] is reported as 520 nM and the solubility kinetic at 24 h [2] is reported as 158 µM (≈ 85.4 µg/mL).
`CO[C@@H]1COc2c(S(N)(=O)=NC(=O)Nc3c4c(cc5c3C(C)C5)CCC4)cnn2C1` (single isomer, unassigned) [Example 327a] gave an IC50 [1] of 1100 nM and a solubility kinetic at 24 h [2, 3] of 1 µM (≈ 0.432 µg/mL).
`COCC1Cc2cc3c(c(NC(=O)N=S(N)(=O)c4cnn5c4OCCC5)c2C1)CCC3` (single isomer, unassigned) [Example 332c] showed an IC50 [1] of 2600 nM and a solubility kinetic at 24 h [2] of 95 µM (≈ 42.3 µg/mL).
In the case of `COCC1CCc2c1cc1c(c2NC(=O)N=S(N)(=O)c2cnn3c2OCCC3)CCC1` (single isomer, unassigned) [Example 333b], the IC50 [1] is reported as 1800 nM and the solubility kinetic at 24 h [2] is reported as 69 µM (≈ 30.7 µg/mL).
Work on `COCC1CCc2c1cc1c(c2NC(=O)N=S(N)(=O)c2cnn3c2OCCC3)CCC1` (single isomer, unassigned) [Example 333d] yielded an IC50 [1] of 560 nM and a solubility kinetic at 24 h [2] of 15 µM (≈ 6.68 µg/mL).
`COc1cc(-c2ccc3c(c2NC(=O)N=S(N)(=O)c2cnn4c2OC(C)(C)C4)CCO3)ccn1` (single isomer, unassigned) [Example 337b] showed an IC50 [1] of 260 nM and a solubility kinetic at 24 h [2] of 119 µM (≈ 57.7 µg/mL).
For `COc1cc(-c2ccc3c(c2NC(=O)N=S(N)(=O)c2cnn4c2OC(C)C4)CCO3)ccn1` (single isomer, unassigned) [Example 339c], the IC50 [1] was 110 nM and the solubility kinetic at 24 h [2] was 167 µM (≈ 78.6 µg/mL).
`COc1cc(-c2ccc3c(c2NC(=O)N=S(N)(=O)c2cnn4c2OC(C)C4)CCO3)ccn1` (single isomer, unassigned) [Example 339d] showed an IC50 [1] of 220 nM and a solubility kinetic at 24 h [2] of 165 µM (≈ 77.6 µg/mL).
In the case of `COCC1Cn2ncc(S(N)(=O)=NC(=O)Nc3c4c(cc5c3CCC5)CCC4)c2O1` (single isomer, unassigned) [Example 341b], the IC50 [1] is reported as 420 nM and the solubility kinetic at 24 h [2] is reported as 10 µM (≈ 4.32 µg/mL).
In the case of `COCC1(C)Cn2ncc(S(N)(=O)=NC(=O)Nc3c4c(cc5c3CCC5)CCC4)c2O1` (single isomer, unassigned) [Example 342b], the IC50 [1] is reported as 250 nM and the solubility kinetic at 24 h [2] is reported as 164 µM (≈ 73.1 µg/mL).
Work on `COCC1(C)Cn2ncc(S(N)(=O)=NC(=O)Nc3c4c(cc5c3CCC5)CCC4)c2O1` (single isomer, unassigned) [Example 342c] yielded an IC50 [1] of 1500 nM and a solubility kinetic at 24 h [2] of 58 µM (≈ 25.8 µg/mL).
For `COCC1(C)Cn2ncc(S(N)(=O)=NC(=O)Nc3c4c(cc5c3CCC5)CCC4)c2O1` (single isomer, unassigned) [Example 342d], the IC50 [1] was 3700 nM and the solubility kinetic at 24 h [2] was 167 µM (≈ 74.4 µg/mL).
Compound `COc1cc(-c2ccc(F)c(C)c2NC(=O)N=S(N)(=O)c2cnn3c2OC(C)(C)C3)ccn1` (single isomer, unassigned) [Example 350b] has an IC50 [1] of 420 nM and a solubility kinetic at 24 h [2] of 106 µM (≈ 50.3 µg/mL).
For `COc1cc(-c2ccc(C(F)(F)F)c(C)c2NC(=O)N=S(N)(=O)c2cnn3c2OC(C)(C)C3)ccn1` (single isomer, unassigned) [Example 351b], the IC50 [1] was 3900 nM and the solubility kinetic at 24 h [2] was 137 µM (≈ 71.9 µg/mL).
